Type in all cases: cell-based, Staphylococcus aureus
One experiment deals with S. aureus strain UAMS-1. The experiment in a line: Minimum inhibitory concentration (MIC) testing, CLSI broth microdilution. The note with it: for MIC: Staphylococcus aureus, S. aureus strain UAMS-1, read-out: MIC. The protocol:
Staphylococcus aureus strains UAMS-1 is a well-characterized antibiotic susceptible osteomyelitis clinical isolate (Blevins Infect. Immun 2003). For experiments, UAMS-1 was cultured in Mueller Hinton (MH) broth and processed as described below. Escherichia coli strain BL21 (DE3) was cultured in Luria–Bertani (LB) and supplemented with ampicillin (50 µg ml^−1) where indicated.
Minimum inhibitory concentration (MIC) was performed according to the Clinical and Laboratory Standards Institute (CLSI) guidelines. Briefly, individual wells of a 96-well microtiter plate were inoculated with 10^4 colony forming units (CFU) of S. aureus UAMS-1 containing two-fold increasing concentrations (0 µM to 100 µM) of the indicated antibiotic or putative RnpA inhibitor and grown at 37 °C for 16 h in MH broth. The MIC was defined as the lowest concentration of compound in which there was no visible bacterial growth detected by the unaided eye.
(In general: Dilution methods test growth across graded concentrations, often in twofold steps.)

Experiment [1] has as its system RnpA-mediated ptRNA processing. The experiment in a line: Cellular ptRNA^Tyr accumulation (qRT-PCR). The settings on record: 0.5X MIC for 1 h, Figure 3 right. The protocol: To evaluate the effects of each analog on cellular RnpA-mediated ptRNA processing, S. aureus cells were treated with a sub-inhibitory concentration of each analog (0.5X MIC) and qRT-PCR was used to measure ptRNA^Tyr accumulation, as previously described. […] Compounds RNP0007, 11,13, 14, 15, and 16 had little effect on ptRNA^Tyr levels in the cellular context.
Cellular S. aureus tRNA^Tyr pools were measured as previously described. […] The culture was removed, combined with an equal volume of acetone:ethanol (1:1 v/v) and stored at −80 °C.
(§1) Cell suspensions in acetone:ethanol were thawed on ice and centrifuged at 1560× g for 10 min at 4 °C. Acetone:ethanol was decanted, and pellets were left to air-dry for 5 min. Cell pellets were resuspended in 500 µL ice-cold TE buffer (10 mM Tris-HCl, pH 8.0, 1mM EDTA) and transferred to FastPrep Lysing Matrix B tubes (MP Biomedicals, Santa Ana, CA). Mixtures were homogenized at 5 m∙s^−1 for 20 s, rested on ice for 5 min, then homogenized again at 4.5 m∙s^−1 for 20 s in a FastPrep-24 instrument. Cell lysates were centrifuged at 16,200× g for 15 min at 4 °C to remove cell debris. Total bacterial RNA and tRNA^Tyr populations were isolated from the supernatant using Qiagen RNeasy Mini kits and miRNeasy kits, respectively, following the manufacturer’s recommendations (Germantown, MD). For qRT-PCR, 2 µg of RNA substrate was treated with 2 units of DNase I (New England Biolabs, Ipswich, MA, USA) for 1 h at 37 °C and re-purified using Qiagen RNeasy Mini kits, following the manufacturer’s instructions. RNA was measured for concentration and quality using a NanoDrop spectrophotometer. Quantabio (Beverly, MA, USA) qScript cDNA Supermix was used to convert 200 ng of RNA into cDNA, following manufacturer’s instructions, which was subsequently amplified using Quantabio SYBR Green Fast Mix following manufacturer’s instructions. Fluorescence was read on the BioRad (Hercules, CA, USA) CFX 96 Connect Real Time Machine. Transcript levels were compared to the internal control 16S rRNA (ΔΔCt) and plotted as fold change compared to the control. The following primer pairs were used in this study for qRT-PCR: spa forward—[…]; spa reverse—[…]; –15 ptRNA^Tyr forward—[…]; tRNA^Tyr reverse—TGGTG GAGGGGGGCAGATTC; 16S rRNA forward—[…]; 16S rRNA reverse—[…].
(Quantitative PCR measures a nucleic acid by following its amplification.)

The test system of the next experiment is S. aureus UAMS-1. Kind of experiment: Fractional inhibitory concentration (FIC) testing with mupirocin. The note with it: for MIC: Staphylococcus aureus, UAMS1, compound alone, read-out: Cpd MIC, Dosed-Individually; for FIC Index / Antimicrobial interaction with mupirocin (class by FIC index): compound + mupirocin; for Cpd MIC, Dosed-Combination: compound MIC in combination with mupirocin. How it is done: Fractional inhibitory concentration (FIC) testing was performed, as previously described. Briefly, each well of a 96-well microtiter plate was inoculated with 10^4 CFU of S. aureus UAMS-1 [42]. Each row of the plate was supplemented with two-fold increasing concentrations of mupirocin (0 µg mL^−1 to 2 µg mL^−1) whereas each column contained two-fold increasing concentrations of putative RnpA inhibitor compound (0.03, 0.0625, 0.125, 0.25, 0.5, 1, or 2× MIC). […] The FIC index was defined by the following formula: FIC = (MIC of Drug A in Combination/MIC of Drug A Alone) + (MIC of Drug B in Combination/MIC of Drug B Alone). A synergistic interaction was defined as a FIC value of ≤0.5, an additive interaction as 0.5–1, no interaction as 1–4 and antagonistic interaction as FIC ≥ 4, as described.

The test system of experiment [2] is RnpA-mediated mRNA turnover of spa mRNA. The experiment in a line: Cellular mRNA turnover assay (spa mRNA, qRT-PCR after rifampin arrest). The settings on record: 0.5X MIC for 30 min, 0 and 5 min post-transcriptional arrest, Figure 3 left. The protocol: As a more direct measure of whether the antimicrobial effects were RnpA-dependent, studies were performed to measure their inhibition of cellular RnpA-mediated mRNA turnover of spa mRNA. The spa mRNA is a natural substrate of RnpA mRNA degradation, as previously described, and can be utilized for an intracellular readout of inhibition for RnpA-mediated mRNA turnover. To do so, S. aureus cells were treated with a sub-inhibitory concentration of compound (0.5X MIC) then challenged with the antibiotic rifampicin to arrest de novo RNA synthesis. Quantitative RT-PCR was used to measure the cellular titers of spa mRNA at 0 and 5 min post-transcriptional arrest.
S.aureus RNA half-life measurements were performed as described. […] To inhibit de novo RNA synthesis, rifampin (Alfa Aesar, Haverhill, MA, USA) was added to the culture at a final concentration of 200 µg mL^−1. Half of the culture was immediately removed and combined with an equal volume of ice-cold acetone:ethanol (1:1 v/v). The remainder of the culture was returned to the 37 °C incubator for an additional 5 min, then combined with an equal volume of ice-cold acetone:ethanol (1:1 v/v) and stored at −80 °C.
as §1

As usually defined, the MIC is the smallest concentration in the dilution series that meets the test's criterion for growth inhibition.

≈ marks a conversion by molar mass, not a printed value. Where “and” joins values, the source holds several entries; their conditions need not be identical. Identical values can stand only once. Entries after “also recorded” stand apart in the source; their conditions may differ. Like-named read-outs stand apart in the source and are kept apart here.

For `O=C(Nc1cccc(Cl)c1)c1c(NC(=O)C(F)(F)F)sc2c1CCCCC2` [RNP0007], the MIC in the experiment on S. aureus strain UAMS-1 (UAMS1) was 0.391 µM and 0.16 µg/mL. Also, the “Cellular ptRNA^Tyr accumulation (in words)” value in experiment [1] was “little effect”. In the experiment on S. aureus UAMS-1, the MIC stood at 0.391 µM; the “FIC Index” value was determined as 0.75; the “Cpd MIC, Dosed-Combination” value is on record as 0.098 µM.
Regarding `O=C(Nc1cccc(F)c1)c1c(NC(=O)C(F)(F)F)sc2c1CCCCC2` [RNP0008], the “Inhibition of cellular spa mRNA turnover (in words)” value (shortened to “Inhibition”) in experiment [2] is “weakest inhibitors”. Also, the MIC with S. aureus strain UAMS-1 (UAMS1) was 0.391 µM and 0.16 µg/mL. In experiment [1], the “Cellular ptRNA^Tyr accumulation (in words)” value is “largest increases”. In addition, in the experiment with S. aureus UAMS-1, the MIC was found to be 0.391 µM; the “FIC Index” value was found to be 1; the “Cpd MIC, Dosed-Combination” value is reported as 0.196 µM.
Consider `O=C(Nc1ccc(F)cc1)c1c(NC(=O)C(F)(F)F)sc2c1CCCCC2` [RNP0009], for which the “Inhibition” value in experiment [2] is reported as “weakest inhibitors”. In addition, the MIC in the experiment on S. aureus strain UAMS-1 (UAMS1) was 0.78 µM and 0.32 µg/mL. For the same compound, in experiment [1], the “Cellular ptRNA^Tyr accumulation (in words)” value is “largest increases”. In the experiment on S. aureus UAMS-1, the MIC turned out to be 0.78 µM; the “FIC Index” value was found to be 0.75; the “Cpd MIC, Dosed-Combination” value is listed as 0.196 µM.
On to `Cc1cccc(NC(=O)c2c(NC(=O)C(F)(F)F)sc3c2CCCCC3)c1` [RNP0010], for which the “Inhibition” value in experiment [2] was “strong inhibitor”. Besides, the MIC in the experiment on S. aureus strain UAMS-1 (UAMS1, 16 h) was 3.21 µM (≈ 1.27 µg/mL); in the experiment with S. aureus strain UAMS-1 (UAMS1), 3.12 µM and 1.24 µg/mL; with S. aureus UAMS-1 it was 3.12 µM. In experiment [1], the “Cellular ptRNA^Tyr accumulation (in words)” value is listed as “largest increases”. Besides, the “FIC Index” value with S. aureus UAMS-1 was determined as 0.75. For the same compound, the “Cpd MIC, Dosed-Combination” value in the experiment with S. aureus UAMS-1 turned out to be 0.78 µM.
On to `O=C(Nc1cccc(C(F)(F)F)c1)c1c(NC(=O)C(F)(F)F)sc2c1CCCCC2` [RNP0011], for which, in experiment [2], the “Inhibition” value is “moderate inhibitors”. Moreover, the MIC in the experiment with S. aureus strain UAMS-1 (UAMS1) was 0.391 µM and 0.18 µg/mL. Also, in experiment [1], the “Cellular ptRNA^Tyr accumulation (in words)” value was “little effect”. For the same compound, in the experiment on S. aureus UAMS-1, the MIC worked out at 0.391 µM; the “FIC Index” value came to 0.75; the “Cpd MIC, Dosed-Combination” value is listed as 0.098 µM.
Turning to `O=C(Nc1ccc(C(F)(F)F)cc1)c1c(NC(=O)C(F)(F)F)sc2c1CCCCC2` [RNP0012], in experiment [2], the “Inhibition” value is recorded as “moderate inhibitors; also recorded: significantly reduced RnpA-associated mRNA degradation”. Further, the MIC with S. aureus strain UAMS-1 (UAMS1) was 0.19 µM and 0.086 µg/mL. Further, in the experiment with S. aureus strain UAMS-1 (compared with JR1), the “Fold improvement in anti-staphylococcal activity (MIC) over JR1” value is given as 6.6 fold. Also, in experiment [1], the “Cellular ptRNA^Tyr accumulation (in words)” value was “largest increases; also recorded: top-performing cellular ptRNA processing inhibitor”. Besides, in the experiment with S. aureus UAMS-1, the MIC was 0.19 µM; the “Antimicrobial interaction with mupirocin (class by FIC index)” value was “additive (a value of 0.5 < FIC ≤ 1 indicates additive effect)”; the “FIC Index” value turned out to be 0.75; the “Cpd MIC, Dosed-Combination” value came out at 0.048 µM.
For `O=C(Nc1cccc(F)c1)c1c(NC(=O)C(F)(F)F)sc2c1CCCC2` [RNP0013], in the experiment on S. aureus strain UAMS-1 (UAMS1), the MIC was 6.25 µM and 2.4 µg/mL. In experiment [1], the “Cellular ptRNA^Tyr accumulation (in words)” value was “little effect”. In addition, in the experiment with S. aureus UAMS-1, the minimal inhibitory concentration (MIC) was found to be 6.25 µM; the “FIC Index” value is on record as 0.75; the “Cpd MIC, Dosed-Combination” value was determined as 1.56 µM.
`O=C(Nc1ccc(F)cc1)c1c(NC(=O)C(F)(F)F)sc2c1CCCC2` [RNP0014]: the “Inhibition” value in experiment [2] is “strongest stabilizers of mRNA”. The MIC in the experiment with S. aureus strain UAMS-1 (UAMS1) is 6.25 µM and 2.4 µg/mL. For the same compound, the “Cellular ptRNA^Tyr accumulation (in words)” value in experiment [1] was “little effect”. Also, in the experiment on S. aureus UAMS-1, the MIC is 6.25 µM; the “Antimicrobial interaction with mupirocin (class by FIC index)” value is “synergistic (FIC ≤ 0.5 indicates synergistic activity)”; the “FIC Index” value amounted to 0.5; the “Cpd MIC, Dosed-Combination” value is reported as 1.56 µM.
As for `O=C(Nc1ccc(C(F)(F)F)cc1)c1c(NC(=O)C(F)(F)F)sc2c1CCCC2` [RNP0015], the MIC in the experiment with S. aureus strain UAMS-1 (UAMS1) is 0.78 µM and 0.34 µg/mL. Further, the “Fold reduction of antimicrobial activity, six-membered vs seven-membered ring matched pair” value with S. aureus strain UAMS-1 (matched molecular pairs) is recorded as “fourfold less potent”. Moreover, in experiment [1], the “Cellular ptRNA^Tyr accumulation (in words)” value is given as “little effect”. Further, in the experiment with S. aureus UAMS-1, the MIC amounted to 0.78 µM; the “FIC Index” value was determined as 1.5; the “Cpd MIC, Dosed-Combination” value came to 0.78 µM.
Consider `O=C(Nc1cccc(C(F)(F)F)c1)c1c(NC(=O)C(F)(F)F)sc2c1CCCC2` [RNP0016], for which, in experiment [2], the “Inhibition” value is reported as “strongest stabilizers of mRNA”. In addition, the MIC with S. aureus strain UAMS-1 (UAMS1) is 3.12 µM and 1.36 µg/mL. The “Cellular ptRNA^Tyr accumulation (in words)” value in experiment [1] was “little effect”. In addition, in the experiment on S. aureus UAMS-1, the MIC was found to be 3.12 µM; the “Antimicrobial interaction with mupirocin (class by FIC index)” value was “additive (a value of 0.5 < FIC ≤ 1 indicates additive effect)”; the “FIC Index” value came out at 1; the “Cpd MIC, Dosed-Combination” value turned out to be 1.56 µM.

Source of the values: PMC8066339, “Optimization of 2-Acylaminocycloalkylthiophene Derivatives for Activity against Staphylococcus aureus RnpA” (Antibiotics, 2021).
